US10188733B2 (priority 2010, dated 2019)

Tested on: VSV-specific neutralizing antibodies
Type: in vivo, mice
Details: for VSV antigen-specific neutralizing antibody titers: free bisphosphonate 2 mg footpad days -3 and -1, live VSV Indiana 10^4 pfu, serum day 8, vs control mice (FIG. 6); for antigen-specific antibody titers / increase in adaptive immune responses following immunization: mouse, in vivo

Row | Compound | VSV antigen-specific neutralizing antibody titers | antigen-specific antibody titers | increase in adaptive immune responses following immunization
1 | NCCCC(O)(P(=O)(O)O)P(=O)(O)O [alendronate] | increased |  | 
2 | CC(O)(P(=O)(O)O)P(=O)(O)O [etidronate] | increased |  | 
3 | NCCC(O)(P(=O)(O)O)P(=O)(O)O [pamidronate] | increased |  | 
4 | carrageenan |  | did not increase | failed to induce an increase
5 | dextran sulfate |  | did not increase | failed to induce an increase
